# Results reported in PubChem BioAssay AID1645866 (Buhrlage Lab, Dana-Farber Cancer Institute and Novartis …, 2021).
# Active and inactive are the calls of the source.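 How the source made its calls: active means in confirmatory dose-response testing, peak deubiquitinase inhibition of 30% or more; inactive means the rest.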
# Target: Ubiquitin carboxyl-terminal hydrolase 28 (Homo sapiens) (UniProt Q96RU2)
# Test: Ubiquitin-specific peptidase 28 DUB inhibitors, biochemical concentration-dependence assay, validation of primary screening hits (AID 1645866)
# Settings: purified USP28, ubiquitin-rhodamine fluorescence, 30 min
# Ubiquitin carboxyl-terminal hydrolase 28 (Homo sapiens), sequence (Q96RU2 whole entry, looked up): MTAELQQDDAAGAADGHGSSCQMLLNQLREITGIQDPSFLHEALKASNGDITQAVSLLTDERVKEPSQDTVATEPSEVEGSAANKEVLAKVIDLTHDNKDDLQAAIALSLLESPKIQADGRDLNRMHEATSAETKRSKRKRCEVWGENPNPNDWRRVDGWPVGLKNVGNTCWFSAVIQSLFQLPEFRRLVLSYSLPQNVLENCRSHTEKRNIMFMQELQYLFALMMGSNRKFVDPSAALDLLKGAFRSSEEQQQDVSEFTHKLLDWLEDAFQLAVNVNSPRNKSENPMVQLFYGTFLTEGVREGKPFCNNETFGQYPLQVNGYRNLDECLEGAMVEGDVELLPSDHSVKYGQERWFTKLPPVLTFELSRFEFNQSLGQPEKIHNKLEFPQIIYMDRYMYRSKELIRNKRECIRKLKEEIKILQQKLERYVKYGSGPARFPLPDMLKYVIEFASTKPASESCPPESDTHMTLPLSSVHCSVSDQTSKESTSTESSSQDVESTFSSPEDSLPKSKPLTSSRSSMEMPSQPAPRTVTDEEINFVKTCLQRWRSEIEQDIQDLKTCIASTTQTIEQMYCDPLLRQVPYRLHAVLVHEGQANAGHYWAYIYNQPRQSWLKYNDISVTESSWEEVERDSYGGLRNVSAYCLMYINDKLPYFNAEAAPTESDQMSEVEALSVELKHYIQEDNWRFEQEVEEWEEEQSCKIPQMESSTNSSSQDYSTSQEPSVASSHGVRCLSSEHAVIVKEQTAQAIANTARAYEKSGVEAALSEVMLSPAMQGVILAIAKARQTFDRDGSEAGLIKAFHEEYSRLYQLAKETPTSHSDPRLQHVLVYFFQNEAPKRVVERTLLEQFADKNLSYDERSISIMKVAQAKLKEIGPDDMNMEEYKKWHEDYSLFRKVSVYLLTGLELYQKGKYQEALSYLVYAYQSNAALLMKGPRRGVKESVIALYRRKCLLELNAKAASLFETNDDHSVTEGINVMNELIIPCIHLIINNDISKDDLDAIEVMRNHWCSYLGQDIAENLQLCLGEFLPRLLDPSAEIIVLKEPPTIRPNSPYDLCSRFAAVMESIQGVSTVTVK
row,IC50,Compound
1,1.37 µM,O=C(NCCc1ccccc1)c1nnn(Cc2cccc(Cl)c2)c1-n1cccc1
2,4.07 µM,CCc1ccc(NC(=O)Cc2nnc3cc(-c4nc(C)no4)ccn23)cc1
3,13 µM,COc1ccc(-c2cc3nc([C@H](C)NC(=O)Cc4cccc(F)c4)nn3cn2)cc1
4,18.3 µM,Oc1ccc(Br)cc1CNc1ccc(F)cc1
5,0.592 µM,CCCc1nc2sc3c(NCCN4CCOCC4)ncnc3c2c2c1CCC2
6,5.81 µM,CCOc1ccc2[nH]c3c(=O)n(CCc4ccc(OC)cc4)cnc3c2c1
7,19.3 µM,O=C1CC(C(=O)Nc2ccccc2Cl)n2nc(-c3ccccc3)cc2N1 (centres undefined)
8,3.84 µM,Oc1cc(OCc2cccc(C(F)(F)F)c2)ccc1-c1ccn[nH]1
9,13 µM,O=C1C/C(=C\c2cccc(Cl)c2)Cc2ccccc21
10,14 µM,CCC(=O)Nc1ccccc1-c1nc2ccccc2n(CC(=O)Nc2cc(OC)ccc2OC)c1=O
11,> 50 µM (inactive),COc1ccc(Cl)cc1-n1nnc(C(=O)N2CCc3ccccc3C2)c1C
12,> 50 µM (inactive),O=S(=O)(c1cccc2cccnc12)N(CCc1ccccc1)C1CCN(CCc2ccc(Cl)cc2)CC1
13,20.3 µM,COc1cccc(NC(=O)C2CCN(C(=O)c3cc(-c4cccnc4)n[nH]3)CC2)c1
14,4.07 µM,Cc1ccc(C)c(CSC2=NCCN2C(=O)c2ccco2)c1
15,24.6 µM,Cc1ccc(C(=O)NCC(=O)Nc2nc3ccccc3[nH]2)c(C)c1
16,> 50 µM (inactive),CSc1cccc(NC(=O)CCc2ccc3nc(NC(C)=O)sc3c2)c1
17,> 50 µM (inactive),COc1cccc(-n2c(=O)[nH]c3c(C(N)=O)nc(-c4ccc(OCc5ccccc5)cc4)nc32)c1
18,< 0.05 µM,CCCc1nc2sc3c(NC4CCCCC4)ncnc3c2c2c1CCC2
19,26.7 µM,CCN1C(SCc2ccc(F)cc2)=NS(=O)(=O)c2ccccc21
20,2.56 µM,O=c1c2ccccc2c(-c2nc(-c3ccncc3)no2)cn1-c1ccccc1
21,20.7 µM,COc1cc2c(c(OCC(=O)Nc3ccc4c(c3)OCCO4)c1)C(=O)O[C@@H](C)CCCC(=O)CCCCC2
22,44.2 µM,O=C(Nc1cc(F)c2nc(N3CCOCC3)ccc2c1)C1CC1
23,33.3 µM,Cc1ccc(NC(=O)c2ccn(COc3ccc(F)cc3)n2)nc1
24,> 50 µM (inactive),CC(C(=O)NCc1ccc(F)cc1)n1cccc1C(=O)c1ccccc1 (centres undefined)
25,10.9 µM,COc1cnc(-c2ccccn2)nc1Sc1ccccc1Cl
26,> 50 µM (inactive),CC(CCc1ccccc1)NC(=O)C(=O)c1cn(CC(=O)N2CCOCC2)c2ccccc12 (centres undefined)

row,IC50,Compound
1,3.78 µM,CC(c1ccccc1)c1nc(-c2ccc(=O)[nH]c2)no1 (centres undefined)
2,12.5 µM,CC1Oc2ccccc2C(=O)N(Cc2ccc([N+](=O)[O-])cc2)C1=O (centres undefined)
3,18 µM,O=C(Cc1noc2ccccc12)NCC(=O)Nc1ccc(Cl)cc1
4,> 50 µM (inactive),N#Cc1cccc(NC(=O)Cn2cccc(-c3nc(-c4ccccc4)no3)c2=O)c1
5,26.5 µM,O=C(CSc1nc2ccncc2[nH]1)Nc1ccc(Br)cc1F
6,> 50 µM (inactive),O=C(Cc1noc2ccccc12)N1CCN(c2ccc([N+](=O)[O-])cc2)CC1
7,2.93 µM,CCN(CC)C(=O)c1sc(NC(=O)/C=C/c2c(F)cccc2Cl)c(C#N)c1C
8,3.13 µM,COc1cccc(NC(=O)Nc2ccc3nc4n(c(=O)c3c2)CCCC4)c1
9,2.04 µM,O=C(Nc1ccccc1-c1nc2ccccc2[nH]1)c1sc2ccccc2c1Cl
10,5.88 µM,Cc1ccccc1NC(=O)c1nc(-c2cn(Cc3ccc(F)cc3)nn2)no1
11,0.828 µM,CC(C)Cc1nc2sc3c(NCCN4CCOCC4)ncnc3c2c2c1CCC2
12,43.8 µM,COc1cccc(C(=O)NCC(=O)Nc2nc3ccccc3[nH]2)c1
13,2.78 µM,CSc1ccccc1C(=O)Nc1sc2c(c1C(N)=O)CCC(C)C2 (centres undefined)
14,> 50 µM (inactive),O=S(=O)(c1ccccc1)N1CCN2Cc3ccccc3N(Cc3ccccc3)CC2C1 (centres undefined)
15,23.2 µM,Cc1ccc2oc(=O)c(S(=O)(=O)N3CCCCC3)cc2c1
16,> 50 µM (inactive),COc1cccc(N2CCN(C(=O)C3CCN(c4nc(NC(C)=O)ns4)CC3)CC2)c1
17,> 50 µM (inactive),Cc1cccc(C(=O)N2CCN3Cc4ccccc4N(C)CC3C2)c1 (centres undefined)
18,33.3 µM,Cc1ccc(NC(=O)c2cnc(N3CCOCC3)nc2)cc1F
19,31 µM,CSc1ccccc1C(=O)Nc1nc(-c2ccncc2)cs1
20,32.6 µM,O=C(NC1(O)C(=O)c2ccccc2C1=O)c1cccc2c1-c1ccccc1C2=O
21,24.6 µM,O=C1Nc2c(Cl)cc(Cl)cc2C1(O)c1sc(NC2CCCCC2)nc1-c1ccccc1 (centres undefined)
22,2.53 µM,c1ccc(Cc2nn3c(-c4cccnc4)nnc3c3ccccc23)cc1
23,2.9 µM,Cc1nc2nc(SCc3nc4ccccc4n3C)[nH]c2cc1Br
24,8.29 µM,Cn1cc(CCNC(=O)c2cc3ccccc3[nH]2)c2cccnc21
25,> 50 µM (inactive),CC(C)(C)C(=O)C1C2C(=O)N(c3ccc4c(c3)OCO4)C(=O)C2C2c3ccccc3C=CN12 (centres undefined)
26,15.1 µM,Cc1[nH]nc(NC(=O)C2COc3ccccc3O2)c1-c1ccccc1 (centres undefined)

row,IC50,Compound
1,24.9 µM,O=C(Cn1cc(C(=O)C2CC2)c2ccccc21)NCc1ccc2c(c1)OCO2
2,37.9 µM,CCC(C)NC(=O)Cn1c(=O)n(-c2ccccc2)c(=O)c2ccc(C(=O)NCc3ccco3)cc21 (centres undefined)
3,7.17 µM,COc1cccc(NC(=O)CCc2c(C)nn(-c3cc(N4CCCCC4)ncn3)c2C)c1
4,31.3 µM,Cn1c(SCc2ccccc2)nnc1-c1csc(-c2ccccc2)n1
5,> 50 µM (inactive),CN(C)C1CCN(C(=O)c2cc(-c3ccn(-c4ccccc4)n3)n3ccccc23)CC1
6,23 µM,Cc1c(CC(=O)N2CCN(c3ncccn3)CC2)c(=O)oc2cc(O)ccc12
7,12.5 µM,c1ccc(-c2nc(-c3nnn(-c4ccccc4)c3-c3ccncc3)no2)cc1
8,27.9 µM,O=C(COc1cccc(C(=O)NCc2ccccc2)c1)Nc1ccc(Oc2ccccc2)cc1
9,> 50 µM (inactive),COc1ccc(C(=O)CSc2nnc(-c3cc4cccc(OC)c4o3)n2C)cc1OC
10,26.4 µM,Nc1ncnc2c1ncn2[C@@H]1O[C@H](CO)C[C@@H]1O
11,14.3 µM,Cc1cc(=O)n(CC(=O)Nc2ccccc2F)c(Nc2ccc(F)cc2)n1
12,20.1 µM,O=C1c2c(O)cccc2C2(Oc3cccc4cccc(c34)O2)C2OC12 (centres undefined)
13,23.5 µM,Cc1cc(O)c2c3c(c(O)c4c(c13)O[C@@H](C)C4(C)C)C(=O)C2=O
14,2.13 µM,Cc1cc(C)n(-c2ccc(C(=O)Nc3cccc(S(=O)(=O)N4CCCC4)c3)cc2)n1
15,6 µM,Cc1ccc(C(=O)c2cn(CC(=O)Nc3ccccc3)c3ccc(C)cc3c2=O)cc1
16,25.4 µM,O=C1COc2ccc(NC(=O)c3cnn(Cc4ccccc4)c3)cc2N1
17,> 50 µM (inactive),CNc1nc2c(c(=O)n1C)CN(C(=O)Nc1cccc3ccccc13)CC2
18,< 0.05 µM,CC1CCc2c(sc3ncnc(OCc4cccc([N+](=O)[O-])c4)c23)C1 (centres undefined)
19,47.8 µM,COc1ccc(C2CC(=O)Nc3ccc4ccccc4c32)c(OC)c1OC (centres undefined)
20,1.97 µM,O=C(Nc1ccc(-c2cn3ccccc3n2)cc1)C1C=C2C=C(Br)C=CC2OC1=O (centres undefined)
21,> 50 µM (inactive),COc1cccc(CN2CCc3nc4nc(C)ccc4cc3C2)c1
22,39.8 µM,O=C(CSc1nnnn1-c1ccccc1)Nc1ccccc1
23,> 50 µM (inactive),O=C(Nc1ccc(Br)cn1)c1nc2ccccc2nc1N1CCCCC1
24,1.04 µM,Cc1ccccc1NC(=O)Nc1ccccc1OCc1cc(=O)n2cccc(C)c2n1
25,13.4 µM,Cc1cc(C(=O)Nc2cc(C)n(Cc3ccc(Cl)cc3)n2)no1
26,> 50 µM (inactive),COc1ccc(NC(=O)CSc2oc(-c3ccc(C)cc3)nc2S(=O)(=O)c2ccc(Br)cc2)c(OC)c1

row,IC50,Compound
1,24.9 µM,Nc1nc(OCc2ccccc2)c2[nH]c(/C=C/c3cccs3)nc2n1
2,25.2 µM,Cc1ccc(NC(=O)c2ccc3c(c2)N(S(C)(=O)=O)CC3)cc1
3,8.65 µM,COC(=O)c1ccc2c(=O)n(CCCCCC(=O)NCCc3ccc(S(N)(=O)=O)cc3)c(=O)[nH]c2c1
4,3.28 µM,COc1cc(OC)c(NC(=O)Cn2c(=O)n(Cc3ccccc3Cl)c(=O)c3cc(OC)c(OC)cc32)cc1Cl
5,2.11 µM,COc1ccc2ncc3c(-c4ccc(C)cc4)nn(-c4ccc(F)cc4)c3c2c1
6,37.7 µM,O=C(COc1ccc2c(c1)CCC2)Nc1ccc2c(c1)CCC2
7,> 50 µM (inactive),Cc1cc(CSc2ncccc2C(=O)Nc2ccnn2Cc2cccnc2)no1
8,> 50 µM (inactive),CC(=O)Nc1ccc(Cc2nc(-c3ccc4c(c3)nc(C)c(=O)n4C3CCCC3)no2)cc1
9,4.81 µM,Cc1ccccc1Cn1cc(SCC(=O)Nc2ccc3c(c2)OCCO3)c2ccccc21
10,> 50 µM (inactive),COc1cccc(-c2nc(C(N)=O)c3[nH]c(=O)n(-c4cccc(Cl)c4)c3n2)c1OC
11,42.3 µM,Cc1ccc(-c2nc(-c3ccccc3)c(S(=O)(=O)CC(=O)Nc3ccc(C)c(C)c3)[nH]2)cc1
12,8.21 µM,N#Cc1ccc(Cc2ncc(C(F)(F)F)cc2Cl)s1
13,9.32 µM,O=C(Nc1nc2c(ccc3ccccc32)s1)c1cccc(Br)c1
14,> 50 µM (inactive),Cn1c(CCN2CCCC2)nc2cc(NS(=O)(=O)c3ccccc3)ccc21
15,22.9 µM,CC(=O)N1CCOc2cc(S(=O)(=O)N3CCCC3c3cc(C)no3)ccc21 (centres undefined)
16,> 50 µM (inactive),Cc1nc2ccccn2c1C1(O)C(=O)Nc2c(Cl)cc(Cl)cc21 (centres undefined)
17,> 5 µM (inactive),COc1ccc(CC(=O)Nc2nc(-c3ccco3)c(-c3ccco3)s2)cc1
18,26.6 µM,CCNc1oc(-c2ccc(S(=O)(=O)N3CCCCC3)cc2)nc1C#N
19,> 50 µM (inactive),C[C@@]12c3ccc4c(c3C(=O)c3occ(c31)C(O)C[C@H]2O)CCC4=O (some centres undefined)
20,> 50 µM (inactive),O=S(=O)(Cc1nnc(-c2ccccc2C(F)(F)F)o1)c1ccc(Cl)cc1
21,22.8 µM,COc1cccc(N2CCN(c3ccc4nnc(CCC(=O)N5CCc6ccccc6C5)n4n3)CC2)c1
22,26 µM,CCOc1ccc(Nc2cc(C(=O)NCCc3ccccc3)c3ccccc3n2)cc1
23,28 µM,COc1cc(OC)cc(-n2c(=O)c3sccc3n(CC(=O)c3ccc(F)cc3)c2=O)c1
24,14.5 µM,CCC(=O)Nc1cccnc1-c1ccc(C(=O)Nc2cccc(OC)c2)cc1
25,19.7 µM,Cc1cc(N2CCOCC2)nc2ccc(NC(=O)CCC(=O)Nc3ccc(F)cc3)cc12

row,Compound,IC50
1,Cc1cccc(COc2ccc(C3SCC(=O)Nc4n[nH]c(C)c43)cc2)c1 (centres undefined),5.31 µM
